Experimental data: patent US20220151993A1, “TREATMENT OF ANXIETY AND DEPRESSION” (NEW YORK UNIVERSITY, priority 2020, published 2022)

Legend:
[1] = test system: patients with cancer-related psychiatric and existential distress; test: Functional Assessment of Chronic Illness Therapy-Spiritual Well-Being (FACIT-Sp-12), long-term follow-up; assay type: in vivo, human; settings: for Faith / Meaning/peace / Spiritual well-being: single 0.3 mg/kg dose with psychotherapy; for Faith: baseline 6.75; for Meaning/peace: baseline 19.43; for Spiritual well-being: baseline 55.69
Experimental: (§1) The present example assesses the long-term effects of a single dose of psilocybin (0.3 mg/kg) in conjunction with psychotherapy in patients with cancer-related psychiatric and existential distress.
(§2) 29 participants were randomly assigned to one of two groups: psilocybin (0.3 mg/kg) on the first medication session followed by niacin (250 mg) on the second session (i.e. psilocybin-first group), or niacin (250 mg) on the first medication session followed by psilocybin (0.3 mg/kg) on the second session (i.e. niacin-first group). Psilocybin and niacin were administered in identically appearing gelatin capsules.
(§3) Participants received three 2-hour preparatory psychotherapy sessions in order to review the purpose and intention of participation in the study, treatment goals, and structure of the treatment sessions. Medications were administered in 8-hour treatment sessions which included a discussion of the participant's subjective experience with the treatment team to consolidate the memory of the experience and to begin the process of post-integrative psychotherapy. Participants also received three 2-hour post-medication integration sessions (repeated after the second dosing session) to further consolidate the memory of the experience and to continue the process of psychological integration. All psychotherapy treatment sessions were delivered by a dyadic therapy team trained in a blend of psychotherapies with an evidence base to support their use in cancer patients (drawing upon principles of palliative care therapy, existential psychotherapy, cognitive-behavioural therapy, psychoanalysis therapy, and transpersonal psychology) and were taught about the safety and clinical pharmacology of psilocybin. Each therapy dyad underwent six confidential one-to-one sessions to build their alliance and exchange ideas about psychedelic therapy. The trial employed a crossover design at seven weeks following the first drug administration, with an outcome assessment at 6.5 months (26 weeks) following the second drug administration (i.e. after the crossover).
(§4) Two long-term follow ups (LTFUs) were carried out to assess the continued effect of psilocybin. Of the original 29 participants, all 16 participants who were not deceased at the time of LTFU were contacted (the remaining 13 participants were deceased). Of the 16 participants who were contacted, 15 agreed to participate in the LTFU and completed measures through a secure online portal. One participant died (from cancer-related complications) after completing the first LTFU and prior to the second LTFU, leaving us with 14 participants at the second LTFU. The first and second LTFUs occurred on average 3.2 years (range 2.3-4.5 years) and 4.5 years (range 3.5-5.5 years) following the participants' psilocybin dosing date, respectively.
Spirituality was assessed using the Functional Assessment of Chronic Illness Therapy-Spiritual Well-Being (FACIT-Sp-12; Bredle et al., 2011). This is a 12-item measure of spiritual well-being among individuals with cancer and other forms of chronic illness. Items are rated on a five-point Likert scale. The measure yields three subscales: a sense of meaning/peace in life, a sense of comfort from one's faith, and total spiritual well-being score. Total scores for each subscale range from 0-32, 0-16, and 0-48, respectively. Data have not been published regarding recommended cutoff scores for this measure. This measure has shown good reliability (Cronbach's a ranging from 0.81-0.88) and has been well validated (Bredle et al. 2011).
Regarding all analyses for both the primary and secondary outcome assessments, both the psilocybin-first and niacin-first dose sequence groups were collapsed and combined into one group. Reasons for this decision included the crossover design, which prevented valid between-group comparisons subsequent to the crossover, and a need to increase power given the modest sample size. […]

[2] = test system: patients with cancer-related psychiatric and existential distress; test: Demoralization Scale (DS), long-term follow-up; assay type: in vivo, human; settings: single 0.3 mg/kg dose with psychotherapy, baseline 31.88, p < 0.001 vs baseline
Experimental: as §1, §2
as §3, with “Each therapy dyad underwent six confidential one-to-one sessions to build their alliance and exchange ideas about psychedelic therapy. The trial employed a crossover design at seven weeks following the first drug administration, with an outcome assessment at 6.5 months (26 weeks) following the second drug administration (i.e. after the crossover).” left out
Cancer-related existential distress (demoralization, hopelessness, attitudes and effects associated with disease progression and death) was assessed using the following methods: • The Death Anxiety Scale (DAS) (Templer, 1970)—a 15-item measure that has been used most frequently to assess death anxiety. Items are scored “true” and “false” and then scored as one and zero, respectively. […]

[3] = test system: patients with life-threatening cancer; settings: cited from earlier work
[4] = test system: patients with cancer-related psychiatric and existential distress; test: Beck Depression Inventory-II (BDI-II), long-term follow-up; assay type: in vivo, human; settings: single 0.3 mg/kg dose with psychotherapy, baseline 14.19
Experimental: as §1, §2
as §3, with “Each therapy dyad underwent six confidential one-to-one sessions to build their alliance and exchange ideas about psychedelic therapy. The trial employed a crossover design at seven weeks following the first drug administration, with an outcome assessment at 6.5 months (26 weeks) following the second drug administration (i.e. after the crossover).” left out
Primary outcomes (anxiety and depression) were measured according to the following methods: • Hospital Anxiety and Depression Scale (HADS) (Zigmond and Snaith, 1983)—this is widely used in hospital settings to screen for the severity of anxiety and depression. […] Subscale scores can be calculated for depression (HADS-D) and anxiety (HADS-A). […]

[5] = test system: patients with cancer-related psychiatric and existential distress; test: Hospital Anxiety and Depression Scale (HADS), long-term follow-up of psilocybin-assisted psychotherapy trial; assay type: in vivo, human; settings: for HADS Depression / HADS Anxiety / HADS Total: single 0.3 mg/kg dose with psychotherapy; for HADS Depression: baseline 5.88; for HADS Anxiety: baseline 10.56; for HADS Total: baseline 16.45
Experimental: as §1, §2, §3, §4
Primary outcomes (anxiety and depression) were measured according to the following methods: • Hospital Anxiety and Depression Scale (HADS) (Zigmond and Snaith, 1983)—this is widely used in hospital settings to screen for the severity of anxiety and depression. It contains 14 questions rated on a four-point scale (total score (HAD-T) ranges from […]). Subscale scores can be calculated for depression (HADS-D) and anxiety (HADS-A). […] The HADS has shown good reliability (Cronbach's a ranging from 0.80-0.93) and has been well validated (Herrmann, 1997). • Beck Depression Inventory-II (BDI-II) (Beck et al., 1988)—a widely used self-report screening measure for depression. The BDI-II consists of 21 questions about depressive symptoms experienced over the past two weeks rated on a […] scale (total score ranges from 0-63). Scores above 12 indicate possible clinical depression. This measure has shown good reliability (internal consistency of 0.90) and factorial validity (Storch et al. 2004). • Spielberger State-Trait Anxiety Inventory (STAI) (Spielberger, 1983)—a well-known measure of anxiety consisting of scales for state (STAI-S) and trait-level anxiety (STAI-T). […]

[6] = mean score at 4.5 years, p < 0.01 vs baseline
[7] = mean score at 6.5-8 months, p < 0.001 vs baseline
[8] = mean score at 4.5 years, p < 0.001 vs baseline
[9] = mean score at 3.2 years, p < 0.001 vs baseline

## CN(C)CCc1c[nH]c2cccc(OP(=O)(O)O)c12 [psilocybin, [3-(2-dimethylaminoethyl)-1H-indol-4-yl] dihydrogen phosphate]
[1]; mean score at 3.2 years, p < 0.05 vs baseline
  Faith: 9.31
[1]; mean score at 3.2 years
  Meaning/peace: 19.27
  Spiritual well-being: 59.85
[1]; [6]
  Faith: 10.43
[1]; mean score at 4.5 years
  Meaning/peace: 20.20
[1]; mean score at 4.5 years, p < 0.05 vs baseline
  Spiritual well-being: 65.04
[1]; mean score at 6.5-8 months, p < 0.01 vs baseline
  Faith: 9.77
[1]; [7]
  Meaning/peace: 26.34
  Spiritual well-being: 70.58
[1]; second LTFU
  spiritual well-being and faith domains (FACIT-Sp-12) relative to baseline: significant improvements
[2]; mean score at 3.2 years
  Demoralization: 13.29
[2]; mean score at 4.5 years
  Demoralization: 14.32
[2]; mean score at 6.5-8 months
  Demoralization: 16.84
[3]; final 6.5 month follow up point, 0.3 mg/kg with psychotherapy
  patients meeting criteria for clinically significant antidepressant or anxiolytic responses: 60-80%
[3]; single dosing session 0.3 mg/kg with psychotherapy
  time post dosing up to which rapid and sustained anxiolytic and antidepressant effects were seen: up to 7 weeks
[4]; mean score at 3.2 years, p < 0.01 vs baseline
  Beck Depression: 7.75
[4]; [8]
  Beck Depression: 5.45
[4]; [7]
  Beck Depression: 5.09
[5]; Spearman, second LTFU subtracted from two-weeks post-psilocybin dose scores, p<0.01
  correlation (r) of length of time between psilocybin session and follow-up with HAD-D depression change score: 0.70
[5]; [9]
  HADS Depression: 2.25
  HADS Anxiety: 5.50
  HADS Total: 7.13
[5]; [6]
  HADS Depression: 2.30
[5]; [8]
  HADS Anxiety: 4.99
  HADS Total: 7.34
[5]; [7]
  HADS Depression: 1.75
  HADS Anxiety: 2.81
  HADS Total: 4.38
[5]; second LTFU point (4.5 years, n=14), 50% or greater reduction relative to baseline
  participants with clinically significant reductions in global psychological distress on the HADS-T: Seventy-one
[5]; second LTFU point (4.5 years, n=14), response = 50% or greater reduction relative to baseline
  participants with clinically significant anxiolytic response on the HADS-A: 57%
